Measured values taken from patent US6583136B1, “Antifungal ethers” (Janssen Pharmacuetica N.V., priority 1999, dated 2003).

Assays:
[1] = Water solubility in citric acid/Na2HPO4 buffered water; assay type: physicochemical; conditions: water buffered with citric acid/Na2HPO4, aqueous buffer, thermodynamic from solid, UV spectroscopy
Method: An excess of compound was added to water buffered with 0.1 M citric acid and 0.2 M Na2HPO4 in a ratio of 61.5/38.5 (pH=4). The mixture was shaken during 1 day at room temperature. The precipitate was filtered off.

[2] = system: Trichophyton rubrum; experiment: Determination of fungal susceptibility (MIC); assay type: cell-based; conditions: CYG medium, 5 days at 30° C., growth to 35% of control or less
Method: (§1) A panel of Candida isolates plus single isolates of the dermatophytes Microsporum canis, Trichophyton rubrum and Trichophyton mentagrophytes; Aspergillus fumigatus, and Cryptococcus neoformans were used to evaluate the activity of the test compounds in vitro. Inocula were prepared as broth cultures (yeasts) or as suspensions of fungal material made from agar slope cultures (moulds). The test compounds were pipetted from dimethylsulfoxide stock solution into water to provide a series of 10-fold dilutions. The fungal inocula were suspended in the growth medium CYG (F. C. Odds, Journal of Clinical Microbiology, 29, 2735-2740, 1991) at approximately 50,000 colony-forming units (CFU) per ml and added to the aqueous test drugs. The cultures were set up in the 96 wells of plastic microdilution plates and they were incubated for 2 days at 37° C. (Candida spp.) or for 5 days at 30° C. (other fungi). Growth in the microcultures was measured by their optical density (OD) measured at a wavelength of 405 nm. The OD for cultures with test compounds was calculated as a percentage of the OD for control cultures, i.e. the OD for cultures without test compounds. Inhibition of growth to 35% of control or less was recorded as significant inhibition.
(§2) Minimal inhibitory concentration (MIC; in 10^−6 M) of some of the compounds of formula (I) for Candida glabrata, Candida krusei, Candida parapsilosis, Candida albicans, Candida kefyr, Candida tropicalis, Microsporum canis, Trichophyton rubrum, Trichophyton mentagrophytes, Cryptococcus neoformans and Aspergillus fumigatus are listed in table 3.

[3] = system: Cryptococcus neoformans; experiment: Determination of fungal susceptibility (MIC); assay type: cell-based; conditions: CYG medium, 5 days at 30° C., growth to 35% of control or less
Method: as §1, §2

[4] = system: Aspergillus fumigatus; experiment: Determination of fungal susceptibility (MIC); assay type: cell-based; conditions: CYG medium, 5 days at 30° C., growth to 35% of control or less
Method: as §1, §2

[5] = system: Trichophyton mentagrophytes; experiment: Determination of fungal susceptibility (MIC); assay type: cell-based; conditions: CYG medium, 5 days at 30° C., growth to 35% of control or less
Method: as §1, §2

[6] = system: Microsporum canis; experiment: Determination of fungal susceptibility (MIC); assay type: cell-based; conditions: CYG medium, 5 days at 30° C., growth to 35% of control or less
Method: as §1, §2

[7] = system: Candida albicans; experiment: Determination of fungal susceptibility (MIC); assay type: cell-based; conditions: CYG medium, 2 days at 37° C., growth to 35% of control or less
Method: as §1, §2

[8] = system: Candida kefyr; experiment: Determination of fungal susceptibility (MIC); assay type: cell-based; conditions: CYG medium, 2 days at 37° C., growth to 35% of control or less
Method: as §1, §2

[9] = system: Candida glabrata; experiment: Determination of fungal susceptibility (MIC); assay type: cell-based; conditions: CYG medium, 2 days at 37° C., growth to 35% of control or less
Method: as §1, §2

[10] = system: Candida tropicalis; experiment: Determination of fungal susceptibility (MIC); assay type: cell-based; conditions: CYG medium, 2 days at 37° C., growth to 35% of control or less
Method: as §1, §2

[11] = system: Candida krusei; experiment: Determination of fungal susceptibility (MIC); assay type: cell-based; conditions: CYG medium, 2 days at 37° C., growth to 35% of control or less
Method: as §1, §2

[12] = system: Candida parapsilosis; experiment: Determination of fungal susceptibility (MIC); assay type: cell-based; conditions: CYG medium, 2 days at 37° C., growth to 35% of control or less
Method: as §1, §2

solubility at 1 day ([1]; pH 4.05, shaken 1 day at room temperature) [µg/mL] | MIC values in 10^−6 M [2] | MIC values in 10^−6 M [3] | MIC values in 10^−6 M [4] | MIC values in 10^−6 M [5] | MIC values in 10^−6 M [6] | MIC values in 10^−6 M [7] | MIC values in 10^−6 M [8] | MIC values in 10^−6 M [9] | MIC values in 10^−6 M [10] | MIC values in 10^−6 M [11] | MIC values in 10^−6 M [12] | solubility at 1 day ([1]; pH 3.65, shaken 1 day at room temperature) [µg/mL] | Compound
> 12000 | 10 10^−6 M | 1 10^−6 M | 1 10^−6 M | 10 10^−6 M | <0.1 10^−6 M | <0.1 10^−6 M | <0.1 10^−6 M | 10 10^−6 M | 1 10^−6 M | 10 10^−6 M | <0.1 10^−6 M | – | CCC(COCCN(CC)CC)n1ncn(-c2ccc(N3CCN(c4ccc(OCC5COC(Cn6cncn6)(c6ccc(F)cc6F)O5)cc4)CC3)cc2)c1=O (stereo not drawn) [Compound 5]
– | 0.1 10^−6 M | 0.1 10^−6 M | 1 10^−6 M | 1 10^−6 M | 1 10^−6 M | <0.01 10^−6 M | <0.01 10^−6 M | 1 10^−6 M | 0.1 10^−6 M | 1 10^−6 M | <0.01 10^−6 M | > 7090 | CC(OCC(N)Cc1ccccc1)C(C)n1ncn(-c2ccc(N3CCN(c4ccc(OCC5COC(Cn6cncn6)(c6ccc(F)cc6F)O5)cc4)CC3)cc2)c1=O (stereo not drawn) [Compound 3]
